Measurements published in article PMC5772984 (International journal for parasitology, 2017).
Like-named read-outs stand apart in the source and are kept apart here.

Assays:
[1] = tested on: UGA1 N-luciferase expressing C. parvum; assay: Nluc expressing C. parvum in vitro growth inhibition in infected HCT-8 cells; assay type: cell-based; conditions: Cryptosporidium parvum
Cryptosporidium = conditions: 1–5 year old malnourished children; ref Amadi et al., 2002; cited from earlier work
C. parvum = conditions: Cryptosporidium parvum
[2] = tested on: Tufts University TU502 C. hominis; conditions: Cryptosporidium hominis, HCT-8
Cryptosporidium parvum = conditions: oral dosing; ref Hulverson et al., 2017; cited from earlier work
[3] = target: UGA1 N-luciferase expressing C. parvum; conditions: read-out: EC50 in vitro against C. parvum; ref Hulverson et al., 2017; cited from earlier work
CRL-8155 cells = conditions: ref Hulverson et al., 2017; cited from earlier work
HepG2 cells = conditions: ref Hulverson et al., 2017; cited from earlier work

Compound | EC50 [1] [nM] | Effectiveness in children with cryptosporidiosis (Cryptosporidium) | EC50 (C. parvum; HCT-8, Bunch Grass Farm C. parvum, high-content imaging) [nM] | EC50 (C. parvum; HCT-8, University of Arizona C. parvum) [nM] | EC50 [2] [nM] | Efficacy when orally dosed in vivo in mice (Cryptosporidium parvum) | EC50 [3] [nM] | In vitro cytotoxicity (CRL-8155 cells) | In vitro cytotoxicity (HepG2 cells)
CC(=O)Oc1ccccc1C(=O)Nc1ncc([N+](=O)[O-])s1 [Nitazoxanide, nitazoxanide] | 3100 | approximately 30% | 1900 | 1680 | 2780 | – | – | – | –
CCOc1ccc2cc(-c3nn(CC4CCNCC4)c4ncnc(N)c34)ccc2n1 [BKI 1318] | – | – | – | – | – | lacked efficacy | 3200 | no toxicity | no toxicity
